This passage reports IC50 and EC50 results from patent publication US20120184542A1, “PYRIDO PYRIMIDINES” (priority 2011, published 2012).

The target of one test is T1, Human DYRK1B (Homo sapiens, UniProt Q9Y463).
T1 construct: purchased Invitrogen PR8350B (former PV4649)
Kind of test: DYRK1B Kinase TR-FRET (IMAP-Tb) Assay. It is filed as biochemical. Conditions: TR-FRET (IMAP-Tb), ATP 70 μM, 37° C. 60 minutes. (In general: In TR-FRET formats the signal depends on donor and acceptor labels being close together.)

The target of another test is T2, Human DYRK1A (Homo sapiens, UniProt Q13627).
T2 construct: purchased Invitrogen PV3997
The experiment in a line: DYRK1A Kinase TR-FRET (IMAP-Tb) Assay. It is filed as biochemical. Conditions: TR-FRET (IMAP-Tb); ATP 70 μM; 37° C. 60 minutes; read-out: Enzyme IC50 (μM) DYRK1A. An outline of the steps:
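Recombinant human DYRK1A phosphorylated fluorescent substrate peptide (1.0 μM) with ATP in 10 mM HEPES pH 7.0, 50 mM NaCl, 5 mM MgCl2, 1 mM DTT, 1 mM NaVO4, 0.02% BSA for 60 min at 37 °C. Phosphopeptide detected by IMAP terbium TR-FRET; IC50 reported.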

For test [1], the system named is SW620 human colon cancer cells. The experiment in a line: SW620 Cell Viability Assay. The format is cell-based. Conditions: Homo sapiens, SW-620, 96 h, read-out: Cellular EC50 (μM) SW620. How it is done: Some cells (S—) were allowed to attach for 24 hrs, serum starved for 48 hrs, and then followed with drug treatments Test Compound Solutions were Prepared in Regular Corresponding Media Supplemented with Serum 2. […] Viability Assay: This assay was performed as follows: • Transfer 50 μL of test compound solution per well from the test compound plate onto the cell plate prepared in Step #1. • Mix the plate with treated cells by pipetting up and down three times with 200 μL multi-channel pipette. • Incubate the cells in 5% CO2 incubator @ 37° C. for 4 days. • Run the CellTiter-Glo™ Luminescent Cell Viability Assay.

The mark [2] stands for this setting: read-out: Enzyme IC50 (μM) DYRK1B.
[3] abbreviates: CellTiter-Glo, 4 days incubation.

Where a name gives a salt, the structure may show the parent alone. Read-outs that look alike come from different tables or passages of the source.

For orientation: IC50 means the concentration that gives 50% inhibition. The term EC50 denotes the concentration that produces a half-maximal response.

T1 sequence (Q9Y463 whole entry): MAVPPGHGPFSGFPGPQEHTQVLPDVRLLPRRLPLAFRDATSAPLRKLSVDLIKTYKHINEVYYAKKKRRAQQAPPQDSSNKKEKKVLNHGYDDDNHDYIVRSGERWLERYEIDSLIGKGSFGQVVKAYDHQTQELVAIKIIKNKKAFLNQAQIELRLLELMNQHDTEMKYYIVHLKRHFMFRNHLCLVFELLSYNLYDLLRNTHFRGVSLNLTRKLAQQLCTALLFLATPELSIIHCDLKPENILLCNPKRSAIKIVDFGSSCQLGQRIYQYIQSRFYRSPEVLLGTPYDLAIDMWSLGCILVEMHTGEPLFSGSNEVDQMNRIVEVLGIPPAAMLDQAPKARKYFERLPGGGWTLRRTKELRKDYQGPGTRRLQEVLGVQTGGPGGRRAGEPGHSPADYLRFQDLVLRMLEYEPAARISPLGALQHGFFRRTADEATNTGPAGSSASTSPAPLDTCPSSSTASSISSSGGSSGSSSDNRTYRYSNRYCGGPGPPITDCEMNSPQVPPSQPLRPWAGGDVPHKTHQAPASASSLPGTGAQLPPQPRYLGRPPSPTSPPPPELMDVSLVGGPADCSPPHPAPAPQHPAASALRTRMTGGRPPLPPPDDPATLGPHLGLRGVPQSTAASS

As for `COC(=O)c1ccc(Cl)c(NC(=O)c2cc3cnc(N4CCN(C)CC4)nc3[nH]c2=O)c1` [Example 35, 4-Chloro-3-{[2-(4-methyl-piperazin-1-yl)-7-oxo-7,8-dihydro-pyrido[2,3-d]pyrimidine-6-carbonyl]amino}-benzoic acid methyl ester], the 50% inhibitory concentration (IC50) is 0.031 µM on Human DYRK1B (setting [2]) and 0.0046 µM on Human DYRK1A. Moreover, the EC50 in test [1] (setting [3]) was 7.05 µM.
For `COC(=O)c1ccc(Cl)c(NC(=O)c2cc3cnc(NCC(O)CO)nc3[nH]c2=O)c1` (stereo not shown) [Example 38, 4-Chloro-3-{[2-(2,3-dihydroxy-propylamino)-7-oxo-7,8-dihydro-pyrido[2,3-d]pyrimidine-6-carbonyl]amino}-benzoic acid methyl ester] the same measures were 0.08 µM, 0.0385 µM and more than 100 µM.
For `COC(=O)c1ccc(Cl)c(NC(=O)c2cc3cnc(N(CCO)CCO)nc3[nH]c2=O)c1` [Example 39, 3-({2-[Bis-(2-hydroxy-ethyl)-amino]-7-oxo-7,8-dihydro-pyrido[2,3-d]pyrimidine-6-carbonyl}-amino)-4-chloro-benzoic acid methyl ester] the same measures were 0.0248 µM, 0.0128 µM and 2.29 µM.
Regarding `COc1ncc2cc(C(=O)Nc3cc(C(=O)NCc4cccc(Cl)c4)ccc3Cl)c(=O)[nH]c2n1` [Example 54, 2-Methoxy-7-oxo-7,8-dihydro-pyrido[2,3-d]pyrimidine-6-carboxylic acid [2-chloro-5-(3-chloro-benzylcarbamoyl)-phenyl]-amide], the half-inhibitory concentration (IC50) amounted to 0.0677 µM on Human DYRK1B (setting [2]) and 0.0215 µM at Human DYRK1A. Moreover, the EC50 in test [1] (setting [3]) was 1.93 µM.
As to `COc1ncc2cc(C(=O)Nc3cc(C(=O)NCCc4ccccc4)ccc3Cl)c(=O)[nH]c2n1` [Example 70, 2-Methoxy-7-oxo-7,8-dihydro-pyrido[2,3-d]pyrimidine-6-carboxylic acid (2-chloro-5-phenethylcarbamoyl-phenyl)-amide], the results for the IC50 on Human DYRK1B (setting [2]) and at Human DYRK1A were 0.204 µM and 0.352 µM, respectively. Moreover, in test [1] (setting [3]), the concentration for a half-maximal effect (EC50) came out at 2.3 µM.
For the compound `CSc1ncc2cc(C(=O)Nc3cc(C(=O)NCc4cccc(Cl)c4)ccc3Cl)c(=O)[nH]c2n1` [Example 74, 2-Methylsulfanyl-7-oxo-7,8-dihydro-pyrido[2,3-d]pyrimidine-6-carboxylic acid [2-chloro-5-(3-chloro-benzylcarbamoyl)-phenyl]-amide], the IC50 on Human DYRK1B (setting [2]) stood at 0.0553 µM; on Human DYRK1A, 0.0256 µM. Also, in test [1] (setting [3]), the concentration for a half-maximal effect (EC50) is 1.07 µM.
For `CN1CCN(c2ncc3cc(C(=O)Nc4cc(C(=O)NCc5cccc(Cl)c5)ccc4Cl)c(=O)[nH]c3n2)CC1` [Example 75, 2-(4-Methyl-piperazin-1-yl)-7-oxo-7,8-dihydro-pyrido[2,3-d]pyrimidine-6-carboxylic acid [2-chloro-5-(3-chloro-benzylcarbamoyl)-phenyl]-amide] the same measures were 0.103 µM, 0.0211 µM and 0.563 µM.
In the case of `O=C(NCc1cccc(Cl)c1)c1ccc(Cl)c(NC(=O)c2cc3cnc(OCCCN4CCOCC4)nc3[nH]c2=O)c1` [Example 80, 2-(3-Morpholin-4-yl-propoxy)-7-oxo-7,8-dihydro-pyrido[2,3-d]pyrimidine-6-carboxylic acid [2-chloro-5-(3-chloro-benzylcarbamoyl)-phenyl]-amide], the figures for the half-maximal inhibitory concentration (IC50) on Human DYRK1B (setting [2]) and at Human DYRK1A were 0.231 µM and 0.0046 µM, respectively. Further, in test [1] (setting [3]), the 50% effective concentration (EC50) was 0.325 µM.
For `O=C(NCc1cccc(Cl)c1)c1ccc(Cl)c(NC(=O)c2cc3cnc(OCCN4CCOCC4)nc3[nH]c2=O)c1` [Example 81, 2-(2-Morpholin-4-yl-ethoxy)-7-oxo-7,8-dihydro-pyrido[2,3-d]pyrimidine-6-carboxylic acid [2-chloro-5-(3-chloro-benzylcarbamoyl)-phenyl]-amide] the same measures were 0.128 µM, 0.0313 µM and 0.651 µM.
With `COc1ncc2cc(C(=O)Nc3cc(C(=O)NC(CN)c4cccc(Cl)c4)ccc3Cl)c(=O)[nH]c2n1` (stereo not shown) [Example 85, 2-Methoxy-7-oxo-7,8-dihydro-pyrido[2,3-d]pyrimidine-6-carboxylic acid {5-[2-amino-1-(3-chloro-phenyl)-ethylcarbamoyl]-2-chloro-phenyl}-amide], the IC50 at Human DYRK1B (setting [2]) came to 0.029 µM; at Human DYRK1A, 0.03 µM. Moreover, the EC50 in test [1] (setting [3]) stood at 0.524 µM.
The matching figures for `O=C(NCc1cccc(Cl)c1)c1ccc(Cl)c(NC(=O)c2cc3cnc(N4CCOCC4)nc3[nH]c2=O)c1` [Example 86, 2-Morpholin-4-yl-7-oxo-7,8-dihydro-pyrido[2,3-d]pyrimidine-6-carboxylic acid [2-chloro-5-(3-chloro-benzylcarbamoyl)-phenyl]-amide]: 3.25 µM, 0.07 µM and more than 10 µM.
For `CN1CCN(CCOc2ncc3cc(C(=O)Nc4cc(C(=O)NCc5cccc(Cl)c5)ccc4Cl)c(=O)[nH]c3n2)CC1` [Example 87, 2-[2-(4-Methyl-piperazin-1-yl)-ethoxy]-7-oxo-7,8-dihydro-pyrido[2,3-d]pyrimidine-6-carboxylic acid [2-chloro-5-(3-chloro-benzylcarbamoyl)-phenyl]amide] the same measures were 0.0859 µM, 0.061 µM and 0.186 µM.
The matching figures for `O=C(NCc1cccc(Cl)c1)c1ccc(Cl)c(NC(=O)c2cc3cnc(NCCN4CCCC4)nc3[nH]c2=O)c1` [Example 89, 7-Oxo-2-(2-pyrrolidin-1-yl-ethylamino)-7,8-dihydro-pyrido[2,3-d]pyrimidine-6-carboxylic acid [2-chloro-5-(3-chloro-benzylcarbamoyl)-phenyl]amide]: 0.023 µM, 0.0189 µM and 0.192 µM.
As to `CN1CCN(CCCNc2ncc3cc(C(=O)Nc4cc(C(=O)NC(CCN)c5ccccc5)ccc4Cl)c(=O)[nH]c3n2)CC1` (stereo not shown) [Example 121, N-(5-(3-Amino-1-phenylpropylcarbamoyl)-2-chlorophenyl)-2-(3-(4-methylpiperazin-1-yl)propylamino)-7-oxo-7,8-dihydropyrido[2,3-d]pyrimidine-6-carboxamide hydrochloride], the half-inhibitory concentration (IC50) on Human DYRK1B (Enzyme IC50 (μM) DYRK1B) turned out to be 0.0137 µM. The half-maximal effective concentration (EC50) in test [1] amounted to 0.157 µM.
The matching figures for `CN1CCN(CCNc2ncc3cc(C(=O)Nc4cc(C(=O)NC(CCN)c5ccccc5)ccc4Cl)c(=O)[nH]c3n2)CC1` (stereo not shown) [Example 132, N-(5-(3-Amino-1-phenylpropylcarbamoyl)-2-chlorophenyl)-2-(2-(4-methylpiperazin-1-yl)ethylamino)-7-oxo-7,8-dihydropyrido[2,3-d]pyrimidine-6-carboxamide hydrochloride]: 0.0306 µM and 0.228 µM.
Regarding `COc1ncc2cc(C(=O)Nc3cc(C(=O)N[C@H](CN)c4ccccc4)ccc3Cl)c(=O)[nH]c2n1` [Example 133, (S)—N-(5-(2-Amino-1-phenylethylcarbamoyl)-2-chlorophenyl)-2-methoxy-7-oxo-7,8-dihydropyrido[2,3-d]pyrimidine-6-carboxamide], the IC50 on Human DYRK1B (setting [2]) is 0.0365 µM. Moreover, the EC50 in test [1] turned out to be 0.738 µM.
Regarding `NCCC(NC(=O)c1ccc(Cl)c(NC(=O)c2cc3cnc(N4CCC(N)CC4)nc3[nH]c2=O)c1)c1ccccc1` (stereo not shown) [Example 137, N-(5-(3-Amino-1-phenylpropylcarbamoyl)-2-chlorophenyl)-2-(4-aminopiperidin-1-yl)-7-oxo-7,8-dihydropyrido[2,3-d]pyrimidine-6-carboxamide hydrochloride], the IC50 on Human DYRK1B (Enzyme IC50 (μM) DYRK1B) was determined as 0.0258 µM. In test [1], the EC50 amounted to 0.659 µM.
Turning to `COc1ncc2cc(C(=O)Nc3cc(C(=O)NCCCN)ccc3Cl)c(=O)[nH]c2n1` [Example 164, N-(5-(3-Aminopropylcarbamoyl)-2-chlorophenyl)-2-methoxy-7-oxo-7,8-dihydropyrido[2,3-d]pyrimidine-6-carboxamide], on Human DYRK1B (setting [2]), the concentration for half-maximal inhibition (IC50) came out at 0.774 µM. In test [1], the EC50 was more than 10 µM.
For `COc1ncc2cc(C(=O)Nc3cc(C(=O)NC4(c5ccccc5)CCNCC4)ccc3Cl)c(=O)[nH]c2n1` [Example 166, N-(2-Chloro-5-(4-phenylpiperidin-4-ylcarbamoyl)phenyl)-2-methoxy-7-oxo-7,8-dihydropyrido[2,3-d]pyrimidine-6-carboxamide], at Human DYRK1B (setting [2]), the concentration for half-maximal inhibition (IC50) was 1.89 µM. In test [1] (setting [3]), the concentration giving a half-maximal response (EC50) is more than 10 µM.
Turning to `COc1ncc2cc(C(=O)Nc3cc(C(=O)N[C@H](CCN)c4ccccc4)ccc3Cl)c(=O)[nH]c2n1` [Example 171, (R)—N-(5-(3-Amino-1-phenylpropylcarbamoyl)-2-chlorophenyl)-2-methoxy-7-oxo-7,8-dihydropyrido[2,3-d]pyrimidine-6-carboxamide], at Human DYRK1B (setting [2]), the half-inhibitory concentration (IC50) amounted to 0.017 µM. In addition, the EC50 in test [1] was 0.446 µM.
For `COc1ncc2cc(C(=O)Nc3cc(C(=O)N[C@@H](CCN)c4ccccc4)ccc3Cl)c(=O)[nH]c2n1` [Example 176, (S)—N-(5-(3-Amino-1-phenylpropylcarbamoyl)-2-chlorophenyl)-2-methoxy-7-oxo-7,8-dihydropyrido[2,3-d]pyrimidine-6-carboxamide] the same measures were 1.15 µM and more than 1 µM.
